Source: patent US20240376084A1, “INHIBITORS OF ALPHA-HEMOLYSIN OF STAPHYLOCOCCUS AUREUS” (Helmholtz-Zentrum Fur Infektionsforschung GmbH, priority 2021, published 2024)

How the values were obtained:
[1] = target: S. aureus Alpha hemolysin (Staphylococcus aureus, UniProt P09616); assay: cell-based; conditions: A549-LDH Assay activity
[2] = target: hemolysin alpha from Staphylococcus aureus (Staphylococcus aureus, UniProt P09616); assay: cell-based
Sequence of hemolysin alpha from Staphylococcus aureus (P09616 27-319 limits assumed): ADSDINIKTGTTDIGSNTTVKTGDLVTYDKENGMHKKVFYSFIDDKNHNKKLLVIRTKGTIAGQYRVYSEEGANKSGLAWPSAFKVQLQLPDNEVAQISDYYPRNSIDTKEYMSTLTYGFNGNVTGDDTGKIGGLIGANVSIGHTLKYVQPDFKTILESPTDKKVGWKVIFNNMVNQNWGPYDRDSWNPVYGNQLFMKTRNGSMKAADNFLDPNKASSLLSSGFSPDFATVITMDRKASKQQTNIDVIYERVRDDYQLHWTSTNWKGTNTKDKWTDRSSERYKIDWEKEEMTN

Sequence of S. aureus Alpha hemolysin (P09616 27-319 limits assumed): as above

Row | Structure (SMILES) | EC50 [1] | IC50 [2] | EC50 [2]
1 | CC(C)c1cc2[nH]c(=O)c(=O)[nH]c2cc1S(=O)(=O)Nc1ccc(-c2ccsc2)c(Cl)c1 [Compound 100, N-(3-chloro-4-(thiophen-3-yl)phenyl)-7-isopropyl-2,3-dioxo-1,2,3,4-tetrahydroquinoxaline-6-sulfonamide] | 1000 to 6000 nM | 100 to 1000 nM | 
2 | Cc1cc2[nH]c(=O)c(=O)[nH]c2cc1S(=O)(=O)Nc1ccc(-c2ccsc2)c(Cl)c1 [Compound 7, N-(3-chloro-4-(thiophen-3-yl)phenyl)-7-methyl-2,3-dioxo-1,2,3,4-tetrahydroquinoxaline-6-sulfonamide] | 100 to 1000 nM | < 30 nM | 
3 | Cc1cc2[nH]c(=O)c(=O)[nH]c2cc1S(=O)(=O)Nc1ccc2c(c1)CCCC2 [Compound 54, 7-methyl-2,3-dioxo-N-(5,6,7,8-tetrahydronaphthalen-2-yl)-1,2,3,4-tetrahydroquinoxaline-6-sulfonamide] | 100 to 1000 nM | 30 to 100 nM | 
4 | Cc1cc2[nH]c(=O)c(=O)[nH]c2cc1S(=O)(=O)Nc1ccc(-c2ccc(C#N)c(N(C)C)c2)c(Cl)c1 [Compound 360, N-[3-chloro-4-[4-cyano-3-(dimethylamino)phenyl]phenyl]-7-methyl-2,3-dioxo-1,4-dihydroquinoxaline-6-sulfonamide] | 100 to 1000 nM |  | 30 to 100 nM
5 | Cc1cc2[nH]c(=O)c(=O)[nH]c2cc1S(=O)(=O)Nc1ccc(-c2cc(F)cc(C(N)=O)c2)c(C(F)(F)F)c1 [Compound 363, 3-fluoro-5-[4-[(7-methyl-2,3-dioxo-1,4-dihydroquinoxalin-6-yl)sulfonylamino]-2-(trifluoromethyl)phenyl]benzamide] | 30 to 100 nM |  | 30 to 100 nM
6 | Cc1cc2[nH]c(=O)c(=O)[nH]c2cc1S(=O)(=O)Nc1ccc(-c2ccc(F)c(C(N)=O)c2)c(C(F)(F)F)c1 [Compound 368, 2-fluoro-5-[4-[(7-methyl-2,3-dioxo-1,4-dihydroquinoxalin-6-yl)sulfonylamino]-2-(trifluoromethyl)phenyl]benzamide] | 100 to 1000 nM |  | 30 to 100 nM
7 | Cc1cc2[nH]c(=O)c(=O)[nH]c2cc1S(=O)(=O)Nc1ccc(-c2ccc3nn[nH]c3c2)c(Cl)c1 [Compound 256, N-[4-(1H-benzotriazol-5-yl)-3-chloro-phenyl]-7-methyl-2,3-dioxo-1,4-dihydroquinoxaline-6-sulfonamide] | 30 to 100 nM |  | < 30 nM
8 | COc1ccc(-c2ccc(NS(=O)(=O)c3cc4[nH]c(=O)c(=O)[nH]c4cc3C)cc2Cl)c(F)c1 [Compound 261, N-[3-chloro-4-(2-fluoro-4-methoxy-phenyl)phenyl]-7-methyl-2,3-dioxo-1,4-dihydroquinoxaline-6-sulfonamide] | 30 to 100 nM |  | < 30 nM
9 | Cc1cc2[nH]c(=O)c(=O)[nH]c2c(F)c1S(=O)(=O)Nc1ccc(Br)c(Cl)c1 [Compound 63, N-(4-bromo-3-chlorophenyl)-5-fluoro-7-methyl-2,3-dioxo-1,2,3,4-tetrahydroquinoxaline-6-sulfonamide] | 1000 to 6000 nM | 30 to 100 nM | 
10 | Cc1cc2[nH]c(=O)c(=O)[nH]c2cc1S(=O)(=O)Nc1cnc(-c2ccc(C#N)cc2)c(Cl)c1 [Compound 305, N-[5-chloro-6-(4-cyanophenyl)-3-pyridyl]-7-methyl-2,3-dioxo-1,4-dihydroquinoxaline-6-sulfonamide] | 30 to 100 nM |  | 100 to 1000 nM
11 | Cc1cc2[nH]c(=O)c(=O)[nH]c2cc1S(=O)(=O)Nc1cc(C)c(-c2cc[nH]c2)c(C)c1 [Compound 135, N-(3,5-dimethyl-4-(1H-pyrrol-3-yl)phenyl)-7-methyl-2,3-dioxo-1,2,3,4-tetrahydroquinoxaline-6-sulfonamide] | 100 to 1000 nM | 100 to 1000 nM | 
12 | Cc1cc2[nH]c(=O)c(=O)[nH]c2cc1S(=O)(=O)Nc1ccc(-c2cccc(OC(F)(F)F)c2)c(Cl)c1 [Compound 339, N-[3-chloro-4-[3-(trifluoromethoxy)phenyl]phenyl]-7-methyl-2,3-dioxo-1,4-dihydroquinoxaline-6-sulfonamide] | 100 to 1000 nM |  | 30 to 100 nM
13 | Cc1cc2[nH]c(=O)c(=O)[nH]c2cc1S(=O)(=O)Nc1ccc(-c2csc(C#N)c2)c(Cl)c1 [Compound 290, N-[3-chloro-4-(5-cyano-3-thienyl)phenyl]-7-methyl-2,3-dioxo-1,4-dihydroquinoxaline-6-sulfonamide] | 30 to 100 nM |  | < 30 nM
14 | CC(=O)c1cccc(-c2ccc(NS(=O)(=O)c3cc4[nH]c(=O)c(=O)[nH]c4cc3C)cc2Cl)c1 [Compound 249, N-[4-(3-acetylphenyl)-3-chloro-phenyl]-7-methyl-2,3-dioxo-1,4-dihydroquinoxaline-6-sulfonamide] | 100 to 1000 nM |  | < 30 nM
15 | Cc1cc2[nH]c(=O)c(=O)[nH]c2cc1S(=O)(=O)NC12CC(c3ccccc3)(C1)C2 [Compound 230, 7-methyl-2,3-dioxo-N-(3-phenylbicyclo[1.1.1]pentan-1-yl)-1,2,3,4-tetrahydroquinoxaline-6-sulfonamide] | 100 to 1000 nM |  | 100 to 1000 nM
16 | Cc1cc2[nH]c(=O)c(=O)[nH]c2cc1S(=O)(=O)Nc1ccc(-c2cccs2)c(Cl)c1 [Compound 24, N-(3-chloro-4-(thiophen-2-yl)phenyl)-7-methyl-2,3-dioxo-1,2,3,4-tetrahydroquinoxaline-6-sulfonamide] | 30 to 100 nM | < 30 nM | 

Row | Structure (SMILES) | EC50 [1] | IC50 [2] | EC50 [2]
17 | COc1cc(NS(=O)(=O)c2cc3[nH]c(=O)c(=O)[nH]c3cc2C)ccc1Br [Compound 121, N-(4-bromo-3-methoxyphenyl)-7-methyl-2,3-dioxo-1,2,3,4-tetrahydroquinoxaline-6-sulfonamide] | 1000 to 6000 nM | 100 to 1000 nM | 
18 | Cc1cc2[nH]c(=O)c(=O)[nH]c2cc1S(=O)(=O)Nc1ccc(-c2ccc(F)c(Cl)c2)c(Cl)c1 [Compound 11, N-(2,3′-dichloro-4′-fluoro-[1,1′-biphenyl]-4-yl)-7-methyl-2,3-dioxo-1,2,3,4-tetrahydroquinoxaline-6-sulfonamide] | 100 to 1000 nM | < 30 nM | 
19 | Cc1cc2[nH]c(=O)c(=O)[nH]c2cc1S(=O)(=O)Nc1ccc(C(F)(F)F)cc1 [Compound 50, 7-methyl-2,3-dioxo-N-(4-(trifluoromethyl)phenyl)-1,2,3,4-tetrahydroquinoxaline-6-sulfonamide] | 30 to 100 nM | 30 to 100 nM | 
20 | Cc1nc2cc(-c3ncc(NS(=O)(=O)c4cc5[nH]c(=O)c(=O)[nH]c5cc4C)cc3Cl)ccc2o1 [Compound 375, N-[5-chloro-6-(2-methyl-1,3-benzoxazol-5-yl)-3-pyridyl]-7-methyl-2,3-dioxo-1,4-dihydroquinoxaline-6-sulfonamide] | 30 to 100 nM |  | 30 to 100 nM
21 | Cc1cc2[nH]c(=O)c(=O)[nH]c2cc1S(=O)(=O)Nc1ccc(-c2ccc(Cl)cc2)c(Cl)c1 [Compound 8, N-(2,4′-dichloro-[1,1′-biphenyl]-4-yl)-7-methyl-2,3-dioxo-1,2,3,4-tetrahydroquinoxaline-6-sulfonamide] | 100 to 1000 nM | < 30 nM | 
22 | CCCc1ccc(NS(=O)(=O)c2cc3[nH]c(=O)c(=O)[nH]c3cc2C)cc1 [Compound 49, 7-methyl-2,3-dioxo-N-(4-propylphenyl)-1,2,3,4-tetrahydroquinoxaline-6-sulfonamide] | 30 to 100 nM | < 30 nM | 
23 | Cc1cc2[nH]c(=O)c(=O)[nH]c2cc1S(=O)(=O)Nc1ccc(-c2ccc3[nH]c(=O)[nH]c3c2)c(Cl)c1 [Compound 294, N-[3-chloro-4-(2-oxo-1,3-dihydrobenzimidazol-5-yl)phenyl]-7-methyl-2,3-dioxo-1,4-dihydroquinoxaline-6-sulfonamide] | 100 to 1000 nM |  | 100 to 1000 nM
24 | Cc1cc2[nH]c(=O)c(=O)[nH]c2cc1S(=O)(=O)Nc1ccc(-c2ccc3c(c2)OC(F)(F)O3)c(Cl)c1 [Compound 287, N-[3-chloro-4-(2,2-difluoro-1,3-benzodioxol-5-yl)phenyl]-7-methyl-2,3-dioxo-1,4-dihydroquinoxaline-6-sulfonamide] | 30 to 100 nM |  | 30 to 100 nM
25 | Cc1cc2[nH]c(=O)c(=O)[nH]c2cc1S(=O)(=O)Nc1ccc(-n2cncn2)cc1 [Compound 265, 7-methyl-2,3-dioxo-N-[4-(1,2,4-triazol-1-yl)phenyl]-1,4-dihydroquinoxaline-6-sulfonamide] | 1000 to 6000 nM |  | 1000 to 3500 nM
26 | Cc1cc2[nH]c(=O)c(=O)[nH]c2cc1S(=O)(=O)Nc1ccc(-c2ccc(C(F)(F)F)cc2)c(Cl)c1 [Compound 317, N-[3-chloro-4-[4-(trifluoromethyl)phenyl]phenyl]-7-methyl-2,3-dioxo-1,4-dihydroquinoxaline-6-sulfonamide] | 1000 to 6000 nM |  | 100 to 1000 nM
27 | O=c1[nH]c2cc(Cl)c(S(=O)(=O)Nc3ccc(C4CCCCC4)cc3)cc2[nH]c1=O [Compound 170, 7-chloro-N-(4-cyclohexylphenyl)-2,3-dioxo-1,2,3,4-tetrahydroquinoxaline-6-sulfonamide] | 100 to 1000 nM | 100 to 1000 nM | 
28 | [2H]C([2H])([2H])c1cc2[nH]c(=O)c(=O)[nH]c2cc1S(=O)(=O)Nc1ccc(-c2ccc(F)cc2)c(Cl)c1 [Compound 387, N-[3-chloro-4-(4-fluorophenyl)phenyl]-2,3-dioxo-7-(trideuteriomethyl)-1,4-dihydroquinoxaline-6-sulfonamide] | 30 to 100 nM |  | < 30 nM
29 | COc1cc2[nH]c(=O)c(=O)[nH]c2cc1S(=O)(=O)Nc1ccc(Br)cc1 [Compound 383, N-(4-bromophenyl)-7-methoxy-2,3-dioxo-1,4-dihydroquinoxaline-6-sulfonamide] | 100 to 1000 nM |  | 1000 to 3500 nM
30 | Cc1cc2[nH]c(=O)c(=O)[nH]c2cc1S(=O)(=O)Nc1ccc(-c2cccnc2)c(Cl)c1 [Compound 29, N-(3-chloro-4-(pyridin-3-yl)phenyl)-7-methyl-2,3-dioxo-1,2,3,4-tetrahydroquinoxaline-6-sulfonamide] | 100 to 1000 nM | < 30 nM | 
31 | Cc1cc2[nH]c(=O)c(=O)[nH]c2cc1S(=O)(=O)Nc1ccc(-c2ccc3cccnc3c2)c(Cl)c1 [Compound 351, N-[3-chloro-4-(7-quinolyl)phenyl]-7-methyl-2,3-dioxo-1,4-dihydroquinoxaline-6-sulfonamide] | 100 to 1000 nM |  | < 30 nM
